From patent EP4548907A1 (SkyLab AG, priority 2023, dated 2025)
“And” between values parts separate entries of the source, which are not always exact repeats. Identical values can stand only once.

Legend:
Design in all cases: species or system bovine
[1] = Experiment 2: surface microhardness recovery of demineralised enamel, aspartic acid with or without tricalcium phosphate; conditions: single treatment 16 hours at 37°C, solutions pH 6-6.5, n=10
Method: Enamel blocks were sectioned from bovine teeth, lapped plano-parallel and highly polished. The baseline surface microhardness of the enamel samples was then measured.
The enamel samples were artificially demineralised by immersing them in demineralisation solution for 60 minutes. Following demineralisation, the surface microhardness of the enamel samples was remeasured. The samples were then stratified between the treatment groups based upon the baseline surface microhardness.
(§1) The enamel samples in each treatment group were treated with the assigned test products for 16 hours. Following treatment, the surface microhardness of each treated enamel sample was remeasured.
(§2) The percentage of surface microhardness recovery (%SMHR) achieved by the test products was calculated and used to compare the ability of the test products to repair the demineralised enamel samples.
The pH of each solution was adjusted into the pH range shown in Table 2, using sodium hydroxide or dilute hydrochloric acid. All pH measurements were taken with a calibrated pH electrode (Serial Number: 13-620-631) and either an Accumet XI,250 ion meter (Asset Number: UK01200-LAB-15-002), or an Orion 720 ion meter (Asset Number: 4F064).
Approximately 90 enamel blocks (Measuring 4mm x 4mm) were sectioned from bovine incisors and were lapped plano-parallel (both sides) using a Logitech PM5 lapping machine (Asset number: 4F008).
(§3) The enamel surfaces of the samples were machine-polished with 1 micron and 0.3 micron aluminium oxide slurries, using a MetPrep Saphir 550 Polisher (Asset Number: UK01200-1010015-114).
(§4) The surface microhardness of each block was measured at the following time points: • At baseline. • After the demineralisation treatment. • After overnight treatment.
(§5) The surface microhardness of the enamel samples was measured using a Buehler MicroMet 5103 (Asset Number: 4F101) and OmniMet MHT software.
(§6) The Intertek CRS method for measuring the surface microhardness of the samples at each time point has been provided below: • Five Knoop indents • 50 gram load force • 10 second dwell time • X50 objective
(§7) A demineralisation solution was prepared that contained: • ▪ 50 mM Acetic acid • ▪ 2.2 mM Calcium nitrate • ▪ 2.2 mM Potassium phosphate monobasic • ▪ 0.1 ppm Sodium fluoride
The pH of the solution was adjusted to pH 4.5. All pH measurements were taken with a calibrated pH electrode (Serial Number: 13-620-631) and either an Accumet XI,250 ion meter (Asset Number: UK01200-LAB-15-002), or an Orion 720 ion meter (Asset Number: 4F064). […]
The ability of the test formulations to repair the demineralised enamel samples after a single treatment was assessed by calculating the percentage of surface microhardness recovery values (%SMHR) achieved by each test product. […]

[2] = Experiment 3: surface microhardness recovery of demineralised enamel, aspartic acid combined with different calcium sources; conditions: single treatment 16 hours at 37°C, solutions pH 6 to 6.5 (excluding controls), n=10
Method: Enamel blocks were sectioned from bovine teeth, lapped plane-parallel, and highly polished. The baseline surface microhardness of the enamel samples was measured. The samples were then stratified between the treatment groups based on the baseline surface microhardness values.
The enamel samples were artificially demineralised by immersing them in a demineralisation solution for 60 minutes. Following demineralisation, the surface microhardness of the enamel samples was remeasured.
as §1, §2
The pH of each solution was adjusted into the pH range of pH 6 to 6.5, using sodium hydroxide or dilute hydrochloric acid (Excluding the positive and negative control). All pH measurements were taken with a calibrated pH electrode (Serial Number: VT1 8048) and an Accumet XI,250 ion meter (Asset Number: UK01200-LAB-15-002).
Approximately 130 enamel blocks (Measuring 4mm x 4mm) were sectioned from bovine incisors and were lapped plano-parallel (both sides) using a Logitech PM5 lapping machine (Asset number: 4F008).
as §3, §4, §5, §6, §7
The pH of the solution was adjusted to pH 4.5. All pH measurements were taken with a calibrated pH electrode (Serial Number: VT1 8048) and an Accumet XI,250 ion meter (Asset Number: UK01200-LAB-15-002.
The enamel blocks were demineralised by placing the samples into a Sterilin containing 8mL of demineralisation solution per sample. All demineralisation exposures were performed for 60 minutes, in an oven set to 37°C for 60 minutes.
The enamel samples were placed into their assigned test solutions for 16 hours at 37°C, whilst being agitated with a magnetic stirrer. Aquasil Putty was used to attach the 10 enamel blocks in each treatment group to a sample holder with the enamel surfaces of the samples exposed.
Following the removal of the samples from the test product, each enamel block was rinsed with deionised water for 1-2 minutes and sonicated for 10 minutes to remove any loose debris. The enamel samples were then returned to their original containers.
The ability of the test formulations to repair the demineralised enamel samples after a single treatment was assessed by calculating the percentage of surface microhardness recovery values (%SMHR) achieved by each test product.
The formula for calculating the %SMHR values achieved by each treatment is shown below: % SMRH = 100∗[(SMHPost-treatment−SMHPost-demineralisation)/(SMH; Baseline−SMH Post-demineralisation)] [formula]

[3] = Summary of 3 experiments in comparison with negative and positive controls; conditions: Water (Negative control) 0 units; for Comparison: units better than negative control / Comparison: units better than fluoride / Comparison: units worser than negative control: scale: Fluoride (Positive control) 100 units
From the text: Table 10. Summary of 3 experiments in comparison with negative and positive controls

[4] = Experiment 1: remineralization of demineralised enamel, surface microhardness (SMH) after single overnight treatment with calcium sources; conditions: single overnight immersion 16 hours, 37°C; for Mean (%SMR): percentage surface microhardness recovery
Method: This in vitro study was designed to compare the remineralization efficacy of the test products, following a single, overnight treatment application.
Bovine enamel blocks were sectioned, machine polished and flattened. The baseline surface microhardness of the enamel samples was measured with a Buehler MicroMet 5103 surface microhardness machine.
Each bovine enamel block was demineralised for 1 hour by immersing the sample at 37°C, in a demineralization solution described by Huang et. al. (2009)^1. Following demineralization, the surface microhardness of each enamel sample was remeasured.
All demineralized enamel samples were subjected to an overnight immersion in the assigned test product, with immersion solutions mixed and heated to 37°C during treatment. Following the overnight immersion, the surface microhardness of the enamel samples was remeasured. The study logistics were designed so that each enamel sample was demineralized and then immersed in the assigned treatment on the same day.
The ability of a single, overnight application of test products and controls to repair enamel lesions was assessed by comparing the percentage surface microhardness recoveries and the changes in surface microhardness for the treated samples.
One hundred and thirty enamel blocks, measuring 4 x 4 mm, were cut from bovine incisors and lapped planar-parallel using a Logitech PM5 lapping machine. The enamel surfaces of the samples were machine-polished using a MetPrep Saphir 550 to a final finish of 0.04 microns. One corner of each block was removed in order to ensure correct orientation on the SMH machine.
The baseline surface microhardness of the enamel samples was measured using a calibrated Buehler MicroMet 5103 microhardness indenter and Knoop diamond indenter tip.
The enamel samples were orientated with the abraded corner in the top right. Baseline surface microhardness indents were placed in the centre of the enamel samples. Five Knoop indents were placed in a vertical line at each timepoint (under a load of 50 g for 10 seconds). Surface imperfections were avoided, and outlying indents replaced.
A demineralization solution was prepared according to the following specifications: • ▪ 50 mM Acetic acid • ▪ 2.2 mM Calcium nitrate • ▪ 2.2 mM Potassium phosphate monobasic • ▪ 0.1 ppm Sodium fluoride • ▪ Final pH of the solution was adjusted to 4.5 with sodium hydroxide.
Enamel samples were mounted onto acetate squares using double-sided tape. Enamel samples were immersed in 8 ml demineralization solution per sample and placed into an oven for 1 hour (37 °C). […]
The post-demineralization surface microhardness of the enamel samples was measured using a calibrated Buehler MicroMet 5103 microhardness indenter and Knoop diamond indenter tip. […]

Compound: [F-].[Na+] [1450 ppm F, Sodium Fluoride, reference compound]
- Mean %SMHR [1]: 14%
- Mean %SMHR ([1]; listed as 1450 ppm Fluoride (Positive control)): 14.12%
- Mean %SMHR Value [2]: 5.15%
- Comparison: units ([3]; position on the scale): 100 units
- Mean (%SMR) ([4]; n = 10): 35.5556%
- Mean (%SMR) ([4]; n = 10, listed as 1450 ppm Fluoride control): 36%
- Mean Change in SMH ([4]; post-treatment SMH minus demineralisation SMH (Knoop), n = 10): 25.12
- mean SMH increase ([4]; rounded values in the text): 25 HK units

Compound: N[C@@H](CC(=O)O)C(=O)O [Aspartic Acid 0.1 %, L-Aspartic Acid]
- Mean %SMHR [1]: 3.19%
- Comparison: units better than negative control [3]: for 65 units better than negative control

Compound: N[C@@H](CC(=O)O)C(=O)O [Aspartic Acid 0.5 %, L-Aspartic Acid]
- Mean %SMHR [1]: -37% and -37.32%
- Comparison: units better than negative control ([3]; listed as Aspartic acid 0,5% in distilled water): for 90 units better than negative control

Compound: N[C@@H](CC(=O)O)C(=O)O [Aspartic acid 0,1% in artifical saliva, Aspartic acid]
- Comparison: units better than fluoride [3]: for 2 units better than fluoride

Compound: N[C@@H](CC(=O)O)C(=O)O [Aspartic acid 0,2% in artificial saliva, Aspartic acid]
- Mean %SMHR Value [2]: 16,21%
- Comparison: units better than fluoride ([3]; listed as Aspartic acid 0,2% in artifical saliva): for 25 units better than fluoride

Compound: N[C@@H](CC(=O)O)C(=O)O [Aspartic acid 0.2 % in distilled water, Aspartic acid]
- Mean %SMHR Value [2]: -87.69%
- Mean %SMHR Value ([2]; listed as 0.2% Aspartic acid): -88%
- Comparison: units worser than negative control [3]: for 70 units worser than negative control

Compound: N[C@@H](CC(=O)O)C(=O)O [Aspartic acid 0.4 %, Aspartic acid]
- Mean %SMHR Value [2]: -91.74%
- Mean %SMHR Value ([2]; listed as 0.4% Aspartic acid): -92%
- Comparison: units worser than negative control ([3]; listed as Aspartic acid 0,4% in distilled water): for 82 units worser than negative control

Compound: N[C@@H](CC(=O)O)C(=O)O [Aspartic acid 0.05 %, Aspartic acid]
- Mean %SMHR Value [2]: -35.13%
- Comparison: units better than negative control ([3]; listed as 0,05% Aspartic acid): for 17 units better than negative control
